Measurements: PubChem BioAssay AID1259411 (Chemical Carcinogenesis Research Information System (CCRIS), 2018)
Activity calls are given as the source filed them. No rule for the calls is given here.

System: rodent carcinogenicity bioassays, tumor incidence
Assay: CCRIS carcinogenicity studies
Procedure, shortened: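 NCI-built, expert-reviewed records of carcinogenicity and related test outcomes (mutagenicity, tumor promotion/inhibition) compiled from published and report sources, historical span 1985-2011, not updated.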

In the case of `Clc1ccc(-c2cc(Cl)c(Cl)c(Cl)c2)cc1Cl`, the carcinogen call (Species: RAT, Strain/Sex: SPRAGUE-DAWLEY/FEMALE, Route: GAVAGE, Dose: 0, 30, 100, 175, 300, 550, 1000 NG/KG BW 5 D/WK FOR 2 YRS, Dose: 0, 30, 100, 175, 300, 550, 1000 NG/KG BW 5 D/WK FOR 2 YRS, Tumor Site: Type of Lesion: LIVER: CHOLANGIOCARCINOMA, HEPATOCELLULAR ADENOMA OR CARCINOMA) is reported as “active; positive”, the carcinogen call (Species: RAT, Strain/Sex: SPRAGUE-DAWLEY/FEMALE, Route: GAVAGE, Dose: 0, 30, 100, 175, 300, 550, 1000 NG/KG BW 5 D/WK FOR 2 YRS, Dose: 0, 30, 100, 175, 300, 550, 1000 NG/KG BW 5 D/WK FOR 2 YRS, Tumor Site: Type of Lesion: LUNG: CYSTIC KERATINIZING EPITHELIOMA) is reported as “active; positive” and the carcinogen call (Species: RAT, Strain/Sex: SPRAGUE-DAWLEY/FEMALE, Route: GAVAGE, Dose: 0, 30, 100, 175, 300, 550, 1000 NG/KG BW 5 D/WK FOR 2 YRS, Dose: 0, 30, 100, 175, 300, 550, 1000 NG/KG BW 5 D/WK FOR 2 YRS, Tumor Site: Type of Lesion: ORAL CAVITY: SQUAMOUS CELL CARCINOMA) is reported as “active; positive”. For the same compound, the carcinogen call (Species: RAT, Strain/Sex: SPRAGUE-DAWLEY/FEMALE, Route: GAVAGE, Dose: 1000 NG/KG BW 5 D/WK FOR 30 WKS (STUDY DURATION: 2 YRS)) was “inactive; negative” and the carcinogen call (Species: RAT, Strain/Sex: SPRAGUE-DAWLEY/FEMALE, Route: ORAL, Dose: 0, 30, 100, 175, 300, 550, 1000 NG/KG/D (STUDY DURATION: 2 YRS), Dose: 0, 30, 100, 175, 300, 550, 1000 NG/KG/D (STUDY DURATION: 2 YRS), Tumor Site: Type of Lesion: ORAL MUCOSA: SQUAMOUS CELL CARCINOMA) was “active; positive; highest dose only”.

With `Clc1cc2c(c(Cl)c1Cl)Oc1c(Cl)c(Cl)c(Cl)c(Cl)c1O2` the carcinogen call (Species: RAT, Strain/Sex: SPRAGUE-DAWLEY/FEMALE (30), Route: ORAL, GAVAGE IN CORN OIL, Dose: 2.5 MG/KG BW PLUS 0.63 MG/KG 0N D 150, TOTAL DOSE 3.1 MG/KG (STUDY DURATION: LIFESPAN), Tumor Site: Type of Lesion: LIVER: CARCINOMA) was “active; positive”, the carcinogen call (Species: RAT, Strain/Sex: SPRAGUE-DAWLEY/FEMALE (30), Route: ORAL, GAVAGE IN CORN OIL, Dose: 2.5 MG/KG BW PLUS 0.63 MG/KG ON D 150, TOTAL DOSE 3.1 MG/KG (STUDY DURATION: LIFESPAN), Tumor Site: Type of Lesion: LUNG: CARCINOMA) was “active; positive” and the carcinogen call (Species: RAT, Strain/Sex: SPRAGUE-DAWLEY/FEMALE (30), Route: ORAL, GAVAGE IN CORN OIL, Dose: 2.8 MG/KG BW PLUS 0.086 MG/KG EVERY OTHER WK FOR LIFESPAN, TOTAL DOSE 4.6 MG/KG (STUDY DURATION: LIFESPAN), Tumor Site: Type of Lesion: LUNG: CARCINOMA) was “active; positive”. For the same compound, the carcinogen call (Species: RAT, Strain/Sex: SPRAGUE-DAWLEY/FEMALE, Route: ORAL, GAVAGE IN CORN OIL, Dose: 0, 1.0, 2.8, 3.1, 3.4, 3.8, 4.1 MG/KG BW ONCE (STUDY DURATION: LIFESPAN), Dose: 0, 1.0, 2.8, 3.1, 3.4, 3.8, 4.1 MG/KG BW ONCE (STUDY DURATION: LIFESPAN), Tumor Site: Type of Lesion: LIVER: CARCINOMA) was “active; positive at higher doses” and the carcinogen call (Species: RAT, Strain/Sex: SPRAGUE-DAWLEY/FEMALE, Route: ORAL, GAVAGE IN CORN OIL, Dose: 0, 1.0, 2.8, 3.1, 3.4, 3.8, 4.1 MG/KG BW ONCE (STUDY DURATION: LIFESPAN), Dose: 0, 1.0, 2.8, 3.1, 3.4, 3.8, 4.1 MG/KG BW ONCE (STUDY DURATION: LIFESPAN), Tumor Site: Type of Lesion: LUNG: CARCINOMA) was “active; positive”.

`CCOP(=S)(OCC)Oc1cc(C)nc(C(C)C)n1` was tested, and the carcinogen call (Species: MOUSE, Strain/Sex: B6C3F1/FEMALE, Route: ORAL, Dose: 0, 100, 200 PPM IN DIET, Dose: 0, 100, 200 PPM IN DIET) was “inactive; negative”, the carcinogen call (Species: MOUSE, Strain/Sex: B6C3F1/MALE, Route: ORAL, Dose: 0, 100, 200 PPM IN DIET, Dose: 0, 100, 200 PPM IN DIET) was “inactive; negative” and the carcinogen call (Species: RAT, Strain/Sex: F344/FEMALE, Route: ORAL, Dose: 0, 400, 800 PPM IN DIET, Dose: 0, 400, 800 PPM IN DIET) was “inactive; negative”. For the same compound, the carcinogen call (Species: RAT, Strain/Sex: F344/MALE, Route: ORAL, Dose: 0, 400, 800 PPM IN DIET, Dose: 0, 400, 800 PPM IN DIET) was “inactive; negative”.

`COc1cc2c(c3oc(=O)c4c(c13)CCOC4=O)[C@@H]1C=CO[C@@H]1O2` was tested, and the carcinogen call (Species: HUMAN, Route: ORAL, Tumor Site: Type of Lesion: LIVER) was “active; positive” and the carcinogen call (Species: RAT, Route: ORAL, Tumor Site: Type of Lesion: KIDNEY) was “active; positive”.

`COc1cc(-c2ccc(N)c(OC)c2)ccc1N` was tested, and the carcinogen call (Species: HAMSTER, Route: ORAL, Tumor Site: Type of Lesion: FORESTOMACH) was “active; positive”, the carcinogen call (Species: MOUSE, Strain/Sex: BALB/FEMALE, Route: ORAL, Dose: 0, 20, 40, 80, 160, 315, 630 PPM IN DRINKING WATER (STUDY DURATION: 112 WK), Dose: 0, 20, 40, 80, 160, 315, 630 PPM IN DRINKING WATER (STUDY DURATION: 112 WK)) was “inactive; negative” and the carcinogen call (Species: MOUSE, Strain/Sex: BALB/MALE, Route: ORAL, Dose: 0, 20, 40, 80, 160, 315, 630 PPM IN DRINKING WATER (STUDY DURATION: 112 WK), Dose: 0, 20, 40, 80, 160, 315, 630 PPM IN DRINKING WATER (STUDY DURATION: 112 WK)) was “inactive; negative”. The carcinogen call (Species: RAT, Route: ORAL, Tumor Site: Type of Lesion: EAR (ZYMBAL GLAND), URINARY BLADDER, INTESTINES, INTEGUMENTARY SYSTEM (SKIN), Tumor Site: Type of Lesion: EAR (ZYMBAL GLAND), URINARY BLADDER, INTESTINES, INTEGUMENTARY SYSTEM (SKIN)) was “active; positive”, the carcinogen call (Species: RAT, Strain/Sex: F344/FEMALE, Route: ORAL, Dose: 0, 80, 170, 330 PPM IN DRINKING WATER FOR 21 MO ( STUDY DURATION: 93 WK), Dose: 0, 80, 170, 330 PPM IN DRINKING WATER FOR 21 MO ( STUDY DURATION: 93 WK), Tumor Site: Type of Lesion: CLITORAL GLAND: ADENOMA OR CARCINOMA, LARGE INTESTINE: ADENOMATOUS POLYP OR ADENOCARCINOMA, LIVER: NEOPLASTIC NODULE OR, Tumor Site: Type of Lesion: CLITORAL GLAND: ADENOMA OR CARCINOMA, LARGE INTESTINE: ADENOMATOUS POLYP OR ADENOCARCINOMA, LIVER: NEOPLASTIC NODULE OR) was “active; positive” and the carcinogen call (Species: RAT, Strain/Sex: F344/FEMALE, Route: ORAL, Dose: 0, 80, 170, 330 PPM IN DRINKING WATER FOR 21 MO (STUDY DURATION: 21 MO), Dose: 0, 80, 170, 330 PPM IN DRINKING WATER FOR 21 MO (STUDY DURATION: 21 MO), Tumor Site: Type of Lesion: ZYMBAL GLAND: ADENOMA, CARCINOMA, CLITORAL GLAND: ADENOMA, CARCINOMA, LARGE INTESTINE: ADENOMATOUS POLYP OR ADENOCARCINO, Tumor Site: Type of Lesion: ZYMBAL GLAND: ADENOMA, CARCINOMA, CLITORAL GLAND: ADENOMA, CARCINOMA, LARGE INTESTINE: ADENOMATOUS POLYP OR ADENOCARCINO) was “active; positive”. For the same compound, the carcinogen call (Species: RAT, Strain/Sex: F344/MALE, Route: ORAL, Dose: 0, 80, 170, 330 PPM IN DRINKING WATER FOR 21 MO (STUDY DURATION: 21 MO), Dose: 0, 80, 170, 330 PPM IN DRINKING WATER FOR 21 MO (STUDY DURATION: 21 MO), Tumor Site: Type of Lesion: ZYMBAL GLAND: ADENOMA, CARCINOMA, PREPUTIAL GLAND: CARCINOMA, SKIN: BASAL CELL ADENOMA, BASAL CELL CARCINOMA, SQUAMOUS C, Tumor Site: Type of Lesion: ZYMBAL GLAND: ADENOMA, CARCINOMA, PREPUTIAL GLAND: CARCINOMA, SKIN: BASAL CELL ADENOMA, BASAL CELL CARCINOMA, SQUAMOUS C) was “active; positive” and the carcinogen call (Species: RAT, Strain/Sex: F344/MALE, Route: ORAL, Dose: 0, 80, 170, 330 PPM IN DRINKING WATER FOR 21 MO (STUDY DURATION: 93 WK), Dose: 0, 80, 170, 330 PPM IN DRINKING WATER FOR 21 MO (STUDY DURATION: 93 WK), Tumor Site: Type of Lesion: BRAIN: MALIGNANT ASTROCYTOMA, PREPUTIAL GLAND: CARCINOMA, ADENOMA OR CARCINOMA, LARGE INTESTINE: ADENOMATOUS POLYP OR AD, Tumor Site: Type of Lesion: BRAIN: MALIGNANT ASTROCYTOMA, PREPUTIAL GLAND: CARCINOMA, ADENOMA OR CARCINOMA, LARGE INTESTINE: ADENOMATOUS POLYP OR AD) was “active; positive”.
